Laboratory results reported in the supplement of paper PMC10307832.

Legend:
Assay in all cases: relative viability (nuclei count vs DMSO), 5 days (fraction); higher = more cells survive
[1] = compound: OCc1c[nH]c2ccccc12 [Indole-3-carbinol] + CS(=O)(=O)N1CCN(Cc2cc3nc(-c4cccc5[nH]ncc45)nc(N4CCOCC4)c3s2)CC1 [Pictilisib] (partner 1 µM)
Procedure, shortened: (§1)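 Cells from lung cancer lines were seeded into 1536-well plates and, one day later, dosed by pin tool. Treatments were either a single drug or a fixed dose of an anchor drug with five library-drug doses (not always all listed) in √10 steps. After 5 days, nuclei were stained in a one-step fixation (final 0.05% Triton X-100, 1% formaldehyde, 1 ug/ml Hoechst) and counted on 4× images, and relative viability is the treated-to-vehicle nuclei ratio, as the median of duplicate plates.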

[2] = compound: OCc1c[nH]c2ccccc12 [Indole-3-carbinol] + Cc1cc(Nc2cc(N3CCN(C)CC3)nc(Sc3ccc(NC(=O)C4CC4)cc3)n2)n[nH]1 [Tozasertib] (partner 0.1 µM)
Procedure, shortened: as §1

[3] = compound: OCc1c[nH]c2ccccc12 [Indole-3-carbinol] + Cc1nc(NC(=O)N2CCC[C@H]2C(N)=O)sc1-c1ccnc(C(C)(C)C(F)(F)F)c1 [Alpelisib] (partner 2 µM)
Procedure, shortened: as §1

[4] = compound: OCc1c[nH]c2ccccc12 [Indole-3-carbinol] + N=C(N)NC(=N)NCCc1ccccc1 [Phenformin] (partner 250 µM)
Procedure, shortened: as §1

[5] = compound: OCc1c[nH]c2ccccc12 [Indole-3-carbinol] + O=C(CCCCCCC(=O)Nc1ccccc1)NO [Vorinostat] (partner 1 µM)
Procedure, shortened: as §1

| Cell Line | relative viability ([1]; first compound 0.253 µM) | relative viability ([1]; first compound 0.8 µM) | relative viability ([1]; first compound 2.53 µM) | relative viability ([1]; first compound 8 µM) | relative viability ([2]; first compound 0.253 µM) | relative viability ([2]; first compound 0.8 µM) | relative viability ([2]; first compound 2.53 µM) | relative viability ([2]; first compound 8 µM) | relative viability ([3]; first compound 0.253 µM) | relative viability ([3]; first compound 0.8 µM) | relative viability ([3]; first compound 2.53 µM) | relative viability ([3]; first compound 8 µM) | relative viability ([4]; first compound 0.253 µM) | relative viability ([4]; first compound 0.8 µM) | relative viability ([4]; first compound 2.53 µM) | relative viability ([4]; first compound 8 µM) | relative viability ([5]; first compound 0.253 µM) | relative viability ([5]; first compound 0.8 µM) | relative viability ([5]; first compound 2.53 µM) | relative viability ([5]; first compound 8 µM) |
| --- | --- | --- | --- | --- | --- | --- | --- | --- | --- | --- | --- | --- | --- | --- | --- | --- | --- | --- | --- | --- |
| HCC-827 | 0.926 | 1.04 | 0.841 | 1.07 | 0.4 | 0.398 | 0.429 | 0.383 | 0.911 | 1 | 0.99 | 0.985 | 0.389 | 0.383 | 0.417 | 0.364 | 0.767 | 0.903 | 0.896 | 0.839 |
| HOP-62 | 0.771 | 0.806 | 1.01 | 0.731 | 0.365 | 0.432 | 0.391 | 0.332 | 1.01 | 0.795 | 0.867 | 0.929 | 0.724 | 0.654 | 0.671 | 0.628 | 0.674 | 0.534 | 0.714 | 0.582 |
| IA-LM | 0.348 | 0.291 | 0.362 | 0.237 | – | – | – | – | 0.672 | 0.866 | 0.77 | 0.713 | – | – | – | – | 1.08 | 1.03 | 1.11 | 0.96 |
| LC-2-ad | 0.439 | 0.502 | 0.466 | 0.464 | 0.404 | 0.417 | 0.537 | 0.468 | 0.91 | 0.874 | 0.945 | 0.856 | 0.597 | 0.525 | 0.638 | 0.588 | 0.765 | 0.742 | 0.696 | 0.662 |
| LCLC-97TM1 | 0.139 | 0.224 | 0.177 | 0.223 | 0.324 | 0.299 | 0.235 | 0.251 | 0.203 | 0.277 | 0.242 | 0.227 | 0.477 | 0.435 | 0.425 | 0.443 | 0.858 | 1.01 | 0.818 | 0.646 |
| LCLC-103H | 0.546 | 0.537 | 0.702 | 0.476 | 0.499 | 0.554 | 0.538 | 0.433 | 0.869 | 0.882 | 0.923 | 0.899 | 0.317 | 0.339 | 0.371 | 0.337 | 0.894 | 0.736 | 0.829 | 0.706 |
| LK-2 | 0.475 | 0.46 | 0.977 | 0.628 | 0.162 | 0.167 | 0.194 | 0.17 | 1.11 | 1.02 | 1.25 | 1.05 | 0.245 | 0.381 | 0.606 | 0.563 | 0.193 | 0.295 | 0.333 | 0.448 |
| LOU-NH91 | 0.488 | 0.472 | 0.539 | 0.57 | 0.65 | 0.693 | 0.749 | 0.634 | 0.746 | 0.706 | 0.703 | 0.728 | 0.783 | 0.708 | 0.725 | 0.699 | 0.924 | 0.865 | 0.961 | 0.945 |
| LU99A | 0.318 | 0.367 | 0.302 | 0.35 | 0.224 | 0.317 | 0.315 | 0.257 | 0.508 | 0.548 | 0.582 | 0.451 | 0.943 | 0.869 | 0.816 | 0.871 | 0.504 | 0.514 | 0.59 | 0.455 |
| LXF-289 | 0.837 | 0.814 | 0.807 | 0.747 | 0.228 | 0.21 | 0.289 | 0.199 | 1.03 | 1.1 | 1.09 | 0.99 | 0.527 | 0.553 | 0.488 | 0.513 | 0.836 | 0.795 | 0.733 | 0.76 |
| NCI-H23 | 0.434 | 0.485 | 0.581 | 0.451 | 0.351 | 0.359 | 0.345 | 0.377 | 0.618 | 0.723 | 0.637 | 0.629 | 0.773 | 0.815 | 0.831 | 0.77 | 0.516 | 0.615 | 0.704 | 0.587 |
| NCI-H322M | 0.45 | 0.487 | 0.486 | 0.502 | 0.476 | 0.465 | 0.458 | 0.472 | 0.774 | 0.82 | 0.86 | 0.8 | 0.685 | 0.764 | 0.746 | 0.761 | 0.713 | 0.8 | 0.902 | 0.779 |
| NCI-H358 | 0.408 | 0.354 | 0.344 | 0.32 | 0.097 | 0.131 | 0.113 | 0.0974 | 0.773 | 0.777 | 0.992 | 0.959 | 0.383 | 0.33 | 0.345 | 0.325 | 0.763 | 0.752 | 0.684 | 0.624 |
| NCI-H1563 | 0.667 | 0.611 | 0.664 | 0.662 | – | – | – | – | 0.905 | 0.997 | 0.921 | 0.885 | 0.657 | 0.652 | 0.636 | 0.644 | – | – | – | – |
| NCI-H1650 | 0.521 | 0.399 | 0.547 | 0.6 | 0.371 | – | 0.364 | 0.473 | – | – | – | – | 0.42 | – | 0.462 | 0.356 | 0.535 | 0.623 | 0.657 | 0.676 |
| NCI-H1703 | – | 0.24 | 0.26 | 0.253 | – | – | – | – | 0.3 | 0.4 | 0.322 | 0.332 | – | – | – | – | – | – | – | – |
| NCI-H1792 | 0.217 | 0.221 | 0.257 | 0.245 | – | – | – | – | 0.713 | 0.68 | 0.77 | 0.673 | 0.191 | 0.26 | – | 0.194 | – | – | – | – |
| NCI-H2342 | – | – | – | – | 0.516 | 0.575 | 0.453 | 0.405 | – | – | – | – | 0.617 | 0.608 | 0.572 | 0.516 | 0.802 | 0.743 | 0.903 | 0.712 |
| SW 900 | – | – | – | – | 0.548 | 0.726 | 0.616 | 0.548 | – | – | – | – | 0.81 | 0.634 | 0.576 | 0.455 | 0.556 | 0.453 | 0.573 | 0.622 |
